# Target: SARS-CoV2-Mpro (Severe acute respiratory syndrome coronavirus 2 (2019-nCoV) (SARS-CoV-2), UniProt P0DTD1)
# Assay: Primary assay: SARS-CoV2-Mpro enzymatic activity inhibition
# Format: biochemical
# Conditions: enzyme preincubated with compound for 20 min; slope of linear portion of signal
# Description: Example A. Primary Assay Used to Determine Potency of SARS-CoV2-Mpro Enzymatic Activity Inhibition
# • (1) Deliver 2× Enzyme • (2) Deliver buffer into No Enzyme wells • (3) Deliver compounds in 100% DMSO by using Acoustic technology (Echo550; nanoliter range) • (4) Incubate for 20 min • (5) Deliver 2× Substrate to initiate the reaction • (6) Spin & shake, start measuring in EnVision at rt; 5 min interval for 25 (2 hours) • (7) Analyze data by taking slope (signal/time) of linear portion of measurement • (8) Slope is calculated by using Excel, and curve fits are performed using Prism software.
# The % inhibition was then used to calculate the IC50 values. The IC50 values are shown in Table A, wherein “A” corresponds to IC50<10.0 nm, “B” corresponds to 10.0 nm≤IC50<50.0 nm, “C” corresponds to 50.0 nm≤IC50<100.0 nm, “D” corresponds to 100.0 nm≤IC50<500.0 nm, and “E” corresponds to 500.0 nm≤IC50<1000.0 nm, and “F” corresponds to 1000.0 nm≤IC50.
row,SMILES,IC50 [nM]
1,"CC(C)(C)[C@H](NC(=O)C(F)(F)F)C(=O)N1C[C@H]2[C@@H]([C@H]1C(=O)NC(C#N)CCC1C(=O)Nc3ccccc31)C2(C)C (stereo partly drawn) [Compound 250, (1R,2S,5S)—N-[1-Cyano-3-(2-oxoindolin-3-yl)propyl]-6,6-dimethyl-3-[(2S)-3,3-dimethyl-2-[(2,2,2-trifluoroacetyl)amino]butanoyl]-3-azabicyclo[3.1.0]hexane-2-carboxamide]",500 to 1000
2,"CC(C)(C)[C@H](NC(=O)C(F)(F)F)C(=O)N1C[C@H]2C([C@H]1C(=O)N[C@H](C#N)CC1C(=O)Nc3ccc(Br)cc31)C2(C)C (stereo in doubt) [Compound 232, (1S,2S,5S)-N-[(1S)-2-(5-bromo-2-oxo-indolin-3-yl)-1-cyano-ethyl]-3-[(2S)-3,3-dimethyl-2-[(2,2,2-trifluoroacetyl)amino]butanoyl]-6,6-dimethyl-3-azabicyclo[3.1.0]hexane-2-carboxamide]",10 to 50
3,"CC(C)(C)[C@H](NC(=O)C(F)(F)F)C(=O)N1C[C@H]2C([C@H]1C(=O)N[C@H](C#N)CC1C(=O)Nc3c(Cl)cccc31)C2(C)C (stereo in doubt) [Compound 235, (1S,2S,5S)-N-[(1S)-2-(7-chloro-2-oxo-indolin-3-yl)-1-cyano-ethyl]-3-[(2S)-3,3-dimethyl-2-[(2,2,2-trifluoroacetyl)amino]butanoyl]-6,6-dimethyl-3-azabicyclo[3.1.0]hexane-2-carboxamide]",< 10
4,"COc1ccc2c(c1)NC(=O)C2C[C@@H](C#N)NC(=O)[C@@H]1[C@H]2[C@H](CN1C(=O)[C@@H](NC(=O)C(F)(F)F)C(C)(C)C)C2(C)C (stereo partly drawn) [Compound 222, (1S,2S,5S)-N-[(1S)-1-cyano-2-(6-methoxy-2-oxo-indolin-3-yl)ethyl]-3-[(2S)-3,3-dimethyl-2-[(2,2,2-trifluoroacetyl)amino]butanoyl]-6,6-dimethyl-3-azabicyclo[3.1.0]hexane-2-carboxamide]",10 to 50
5,"CC(C)(C)[C@H](NC(=O)C(F)(F)F)C(=O)N1C[C@H]2C([C@H]1C(=O)N[C@H](C#N)Cn1c(=O)[nH]c3ccccc31)C2(C)C (stereo in doubt) [Compound 301, (1R,2S,5S)—N—((S)-1-cyano-2-(2-oxo-2,3-dihydro-1H-benzo[d]imidazol-1-yl)ethyl)-3-((S)-3,3-dimethyl-2-(2,2,2-trifluoroacetamido)butanoyl)-6,6-dimethyl-3-azabicyclo[3.1.0]hexane-2-carboxamide]",≥ 1000
6,CC(C)(C)[C@H](NC(=O)C(F)(F)F)C(=O)N1C[C@H]2[C@@H]([C@H]1C(=O)NC(C#N)CC1C(=O)Nc3ncccc31)C2(C)C (stereo partly drawn) [Compound 249],500 to 1000
7,"CC(C)(C)[C@H](NC(=O)C(F)(F)F)C(=O)N1C[C@H]2[C@H]([C@H]1C(=O)N[C@H](C#N)CC1C(=O)Nc3ccc(Cl)cc31)C2(C)C (stereo partly drawn) [Compound 218, (1S,2S,5S)-N-[(1S)-2-(5-chloro-2-oxo-indolin-3-yl)-1-cyano-ethyl]-3-[(2S)-3,3-dimethyl-2-[(2,2,2-trifluoroacetyl)amino]butanoyl]-6,6-dimethyl-3-azabicyclo[3.1.0]hexane-2-carboxamide]",10 to 50
8,"CC(C)(C)[C@H](NC(=O)C(F)(F)F)C(=O)N1C[C@H]2C([C@H]1C(=O)N[C@H](C#N)CC1C(=O)Nc3cc(Br)ccc31)C2(C)C (stereo in doubt) [Compound 233, (1S,2S,5S)-N-[(1S)-2-(6-bromo-2-oxo-indolin-3-yl)-1-cyano-ethyl]-3-[(2S)-3,3-dimethyl-2-[(2,2,2-trifluoroacetyl)amino]butanoyl]-6,6-dimethyl-3-azabicyclo[3.1.0]hexane-2-carboxamide]",50 to 100
9,"Cc1ccc2c(c1)C(CC(C#N)NC(=O)C1C3[C@H](CN1C(=O)[C@@H](NC(=O)C(F)(F)F)C(C)(C)C)C3(C)C)C(=O)N2 (stereo in doubt) [Compound 230, (1S,2S,5S)-N-[1-cyano-2-(5-methyl-2-oxo-indolin-3-yl)ethyl]-3-[(2S)-3,3-dimethyl-2-[(2,2,2-trifluoroacetyl)amino]butanoyl]-6,6-dimethyl-3-azabicyclo[3.1.0]hexane-2-carboxamide]",10 to 50
10,"Cc1ccc2c(c1)C(F)(CC(C#N)NC(=O)C1C3[C@H](CN1C(=O)[C@@H](NC(=O)C(F)(F)F)C(C)(C)C)C3(C)C)C(=O)N2 (stereo in doubt) [Compound 229, (1S,2S,5S)-N-[1-cyano-2-(3-fluoro-5-methyl-2-oxo-indolin-3-yl)ethyl]-3-[(2S)-3,3-dimethyl-2-[(2,2,2-trifluoroacetyl)amino]butanoyl]-6,6-dimethyl-3-azabicyclo[3.1.0]hexane-2-carboxamide]",10 to 50
11,"CC(C)(C)[C@H](NS(=O)(=O)CC(F)(F)F)C(=O)N1C[C@H]2C([C@H]1C(=O)N[C@H](C#N)C[C@@H]1CCNC1=O)C2(C)C (stereo in doubt) [Compound 209, (1R,2S,5S)—N-[(1S)-1-cyano-2-[(3S)-2-oxopyrrolidin-3-yl]ethyl]-3-[(2S)-3,3-dimethyl-2-(2,2,2-trifluoroethylsulfonylamino)butanoyl]-6,6-dimethyl-3-azabicyclo[3.1.0]hexane-2-carboxamide]",10 to 50
12,"CC(C)(C)[C@H](NS(C)(=O)=O)C(=O)N1C[C@H]2C([C@H]1C(=O)N[C@H](C#N)C[C@@H]1C(=O)Nc3ccccc31)C2(C)C (stereo in doubt) [Compound 238, (1S,2S,5S)-N-[(1S)-1-cyano-2-(2-oxoindolin-3-yl)ethyl]-3-[(2S)-2-(methanesulfonamido)-3,3-dimethyl-butanoyl]-6,6-dimethyl-3-azabicyclo[3.1.0]hexane-2-carboxamide]",< 10

# From US20250376464A1 (Trawsfynydd Therapeutics, Inc., priority 2022, published 2025)
